# Key:
# [1] = test system: VEEV TC-83; experiment: microbe, parasite or virus in culture; assay type: cell-based; conditions: Venezuelan equine encephalitis virus, Vero 76, 48 h, read-out: VEEV EC50
# [2] = test system: VEEV TC-83; assay type: cell-based, Venezuelan equine encephalitis virus
# [3] = test system: VEEV Trinidad Donkey (TrD); design: species or system BALB/c mice; conditions: mouse, in vivo
# [4] = mouse, microsomes
# [5] = mouse
# [6] = mouse; remark: listed apart in the source
# [7] = test system: VEEV TC-83; conditions: mouse, in vivo; cited from earlier work
smiles,measurement,setting,value
"CN1CCN(C)/C(=N/c2ccc([N+](=O)[O-])cc2C(=O)Nc2ccccc2)C1 [ML336, (E)-2-((1,4-dimethylpiperazin-2-ylidene)amino)-5-nitro-N-phenylbenzamide]",EC50,[1],32 ± 5 nM
same,VEEV log titer reduction,[2],7.0 ± 0.4 log
same,protection of mice (survival),[3],100%
same,"Microsomal stability, % parent after 1h",[4],42.9%
same,"Plasma stability, % parent after 3h",[5],65.4%
same,"plasma protein binding, % bound at 1 μM",[6],85.0 / 77.0%
same,"plasma protein binding, % bound at 10 μM",[6],85.0 / 77.0%
same,survival rate,[7],71%

# — publication PMC7305796 (Antiviral research, 2019)
